Measurements as given in PubChem BioAssay AID743413 (Broad Institute, 2014).
Active and inactive are the calls of the source.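 The calls were made as follows: active = compounds lowering cell ATP signal with a fitted AC50 at or below twice their top tested dose; inconclusive = flat curve between 30% and 70% loss, or poor fit; inactive = the rest.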

tested on: A549 viability, CellTiter-Glo ATP luminescence, 72 h; test: A549 cell cytotoxicity, dose response, cytotoxicity control, plate reader, dry powder, set 11 (AID 743413); conditions: not given

SMILES | AC50
O=C(CSc1c2c(nc3ccc(Cl)cc13)CCCC2)NCCCc1ccccc1 | > 52 µM (inactive)
O=C(CSc1c2c(nc3ccc(Cl)cc13)CCCC2)N1CCCCC1 | > 52 µM (inactive)
O=C(CSc1c2c(nc3cc(Cl)ccc13)CCCC2)N(Cc1ccco1)C1CCCC1 | > 52 µM (inactive)
Cc1ccc(CNC(=O)CSc2c3c(nc4ccc(Cl)cc24)CCCC3)cc1 | > 52 µM (inactive)
O=C(CSc1c2c(nc3ccc(Cl)cc13)CCCC2)NC1CC1 | > 52 µM (inactive)
CCN1CCCC1CNC(=O)CSc1c2c(nc3ccc(Cl)cc13)CCCC2 (stereo unspecified) | 16.2 µM
COc1ccc(NC(=O)CSc2c3c(nc4ccc(Cl)cc24)CCCC3)cc1 | > 52 µM (inactive)
COc1ccc(CNC(=O)CSc2c3c(nc4ccc(Cl)cc24)CCCC3)cc1 | > 52 µM (inactive)
O=C(CSc1c2c(nc3ccc(Cl)cc13)CCCC2)NCc1cccs1 | > 52 µM (inactive)
Cc1cccc(CCNC(=O)CSc2c3c(nc4ccc(Cl)cc24)CCCC3)c1 | > 52 µM (inactive)
O=C(CSc1c2c(nc3ccc(Cl)cc13)CCCC2)NCCN1CCN(Cc2ccccc2)CC1 | 26.7 µM
O=C(CSc1c2c(nc3ccc(Cl)cc13)CCCC2)N1CCC(N2CCCCC2)CC1 | 26.6 µM
O=C(CSc1c2c(nc3ccc(Cl)cc13)CCCC2)NCc1ccc2c(c1)OCO2 | > 52 µM (inactive)
O=C(CSc1c2c(nc3ccc(Cl)cc13)CCCC2)Nc1ccccc1 | > 52 µM (inactive)

tested on: not listed separately; test: as above; conditions: A549 viability, CellTiter-Glo ATP luminescence, 72 h; at 12 µM (top of the series)

SMILES | activity change, negative = cytotoxicity
COCCN(Cc1ccco1)C(=O)CSc1c2c(nc3cc(Cl)ccc13)CCCC2 | -3.68% (inactive)
COc1cc(CNCCCN2CCOCC2)ccc1OCC(=O)Nc1cccc(C(F)(F)F)c1 | 7.4% (inactive)

same assay, conditions: A549 viability, CellTiter-Glo ATP luminescence, 72 h; at 26 µM (top of the series)

SMILES | activity change, negative = cytotoxicity
Cn1cc(SCC(=O)NCc2ccco2)c2ccccc21 | -0.441% (inactive)
CN(CCNC(=O)CSc1c2c(nc3ccc(Cl)cc13)CCCC2)Cc1ccccc1 | -8.03% (inactive)
O=C(CSc1c2c(nc3ccc(Cl)cc13)CCCC2)N1CCNC1=O | -13.8% (inactive)
CN(C(=O)COc1ccccc1C(=O)Nc1ccccc1)c1ccccc1 | -12% (inactive)
COc1cc(C(=O)NCCCN(C)C)ccc1OCC(=O)Nc1cccc(C(F)(F)F)c1 | -6.69% (inactive)
CCN(CC)C(=O)CSc1c2c(nc3ccc(Cl)cc13)CCCC2 | -10.9% (inactive)
CCOC(=O)C1CCN(C(=O)c2ccc(OCC(=O)Nc3ccc(OCC)cc3)c(OC)c2)CC1 | 5.86% (inactive)
O=C(CSc1c2c(nc3ccc(Cl)cc13)CCCC2)NCC1(c2ccccc2)CCCC1 | -1.8% (inactive)
O=C(CSc1cccc2cccnc12)NCc1ccco1 | -1.12% (inactive)
NC(=O)C1CCN(C(=O)c2ccc(OCC(=O)Nc3cccc(C(F)(F)F)c3)cc2)CC1 | 8.43% (inactive)
O=C(CSc1ccc2ccccc2n1)NCc1ccco1 | -6.75% (inactive)
CC1(C)CC(NC(=O)c2ccc(OCC(=O)Nc3cccc(C(F)(F)F)c3)cc2)CC(C)(C)N1 | -14.3% (inactive)
O=C(O)CSc1c2c(nc3cc(C(=O)NCc4cccs4)ccc13)CCCC2 | -2.24% (inactive)
Cn1c(=O)cc(SCC(=O)NCc2ccco2)c2ccccc21 | 5.32% (inactive)
CCOC(=O)C1CCN(C(=O)c2ccc(OCC(=O)N3CCOCC3)c(OC)c2)CC1 | -3.29% (inactive)
O=C(COc1ccccc1C(=O)NCCOc1ccc(Cl)cc1)Nc1cccc(Cl)c1 | -15.3% (inactive)
CN(C(=O)COc1ccc(Cl)cc1C(N)=O)c1ccccc1 | 2.07% (inactive)
O=C(COc1ccc(C(=O)N2CCN(C(=O)C3CC3)CC2)cc1)Nc1cccc(C(F)(F)F)c1 | -1.09% (inactive)

SMILES | activity change, negative = cytotoxicity
COc1ccc(N(Cc2cccs2)C(=O)COc2ccccc2C(=O)Nc2ccccc2)cc1 | -14% (inactive)
CN(CCOc1ccccc1)C(=O)c1ccc(OCC(=O)Nc2cccc(C(F)(F)F)c2)cc1 | 0.912% (inactive)
Cc1ccc(NC(=O)COc2ccccc2C(=O)NCCN(C)C)cc1 | -4.77% (inactive)
CCOC(=O)N1CCC(NC(=O)CSc2c3c(nc4ccc(Cl)cc24)CCCC3)CC1 | -13.1% (inactive)
COc1ccc(OCCNC(=O)c2ccccc2OCC(=O)Nc2ccc(NC(C)=O)cc2)cc1 | -14.7% (inactive)
O=C(COc1ccc(C(=O)NC2CCCCC2)cc1)Nc1cccc(C(F)(F)F)c1 | -0.017% (inactive)
O=C(COc1ccccc1C(=O)NCc1ccccc1)Nc1ccccc1 | -5.99% (inactive)
O=C(CSc1c2c(nc3ccc(Cl)cc13)CCCC2)NC1CCCC1 | -25.2% (inactive)
Cc1ccc2nc(Cl)cc(SCC(=O)NCc3ccco3)c2c1 | -7.2% (inactive)
CCCCOc1ccc(NC(=O)COc2ccccc2C(=O)NCCOc2ccccc2)cc1 | -9.94% (inactive)
CCOc1ccc(NC(=O)COc2ccc(C(=O)N3CCC(C(N)=O)CC3)cc2OC)cc1 | -3.38% (inactive)
O=C(COc1ccc(C(=O)N2CCC2)cc1)Nc1cccc(C(F)(F)F)c1 | 2.9% (inactive)
COC(=O)CCCN(C)C(=O)c1ccc(OCC(=O)Nc2cccc(OC)c2)cc1 | -0.651% (inactive)
CN(C(=O)COc1ccccc1C(N)=O)c1ccccc1 | -1.13% (inactive)
CN(C)c1ccc(NC(=O)COc2ccccc2C(=O)N2CCOCC2)cc1 | -1.46% (inactive)
O=C(COc1ccc(C(=O)NCC2CCCO2)cc1)Nc1cccc(C(F)(F)F)c1 (stereo unspecified) | 1.08% (inactive)
CC(Sc1c2c(nc3ccc(Cl)cc13)CCCC2)C(=O)NCc1ccco1 (stereo unspecified) | -8.08% (inactive)
